The results in this text go back to ChEMBL document CHEMBL3046629, “Fungicidal Activities of 2-Methoxy-2-[2-(benzylideneaminooxymethyl)phenyl]-N-methylacetamide Derivatives” (2002).

Activity calls are given as the source filed them. No cut-off for these calls is given here. Bounds are passed on as bounds.

Assay [1] concerns Pseudoperonospora cubensis. As to the kind of experiment: Fungicidal activity against Pseudoperonospora cubensis assessed as cucumber downy mildew disease control in field at 400 ppm measured after 9 days of last application. The class given is functional.
Assay [2] has as its system Pseudoperonospora cubensis. As to the kind of experiment: Fungicidal activity against Pseudoperonospora cubensis assessed as cucumber downy mildew disease control at 500 ppm foliar application 24 hr before inoculation onto the abaxial(treated) surface of leaf by preventive manner. The assay is classed as functional.
The subject of assay [3] is Pseudoperonospora cubensis. Nature of the assay: Fungicidal activity against Pseudoperonospora cubensis assessed as cucumber downy mildew disease control at 125 ppm foliar application 24 hr before inoculation onto the adaxial(treated) surface of leaf by preventive manner. The assay is classed as functional.
The subject of assay [4] is Botrytis cinerea. Nature of the assay: Fungicidal activity against Botryotinia fuckeliana assessed as cucumber gray mold disease control at 31.3 ppm treated on upper surface of leaf 24 hr before inoculation at 22 +/- 2 degC measured after 3 days by preventive manner. The assay is classed as functional.
Assay [5] deals with Podosphaera fuliginea. As to the kind of experiment: Fungicidal activity against Podosphaera fuliginea assessed as cucumber powdery mildew disease control at 31.3 ppm treated on upper surface of leaf 24 hr before inoculation at 23 +/- 2 degC measured after 10 days by preventive manner. The class given is functional.
Assay [6] has as its system Pseudoperonospora cubensis. As to the kind of experiment: Fungicidal activity against Pseudoperonospora cubensis assessed as cucumber downy mildew disease control at 125 ppm foliar application 24 hr before inoculation onto the abaxial(treated) surface of leaf by preventive manner. The assay is classed as functional.
For assay [7], the system named is Pseudoperonospora cubensis. Nature of the assay: Fungicidal activity against Pseudoperonospora cubensis assessed as cucumber downy mildew disease control at 2 ppm foliar application 24 hr after inoculation by curative manner. The assay is classed as functional.
Assay [8] deals with Pseudoperonospora cubensis. As to the kind of experiment: Fungicidal activity against Pseudoperonospora cubensis assessed as cucumber downy mildew disease control at 7.8 ppm foliar application 24 hr after inoculation by curative manner. The assay is classed as functional.
The test system of assay [9] is Pseudoperonospora cubensis. As to the kind of experiment: Fungicidal activity against Pseudoperonospora cubensis assessed as cucumber downy mildew disease control at 31.3 ppm foliar application 24 hr after inoculation by curative manner. The class given is functional.
The subject of assay [10] is Pseudoperonospora cubensis. As to the kind of experiment: Fungicidal activity against Pseudoperonospora cubensis assessed as cucumber downy mildew disease control at 125 ppm foliar application 24 hr after inoculation by curative manner. The class given is functional.
Assay [11] deals with Pseudoperonospora cubensis. Nature of the assay: Fungicidal activity against Pseudoperonospora cubensis assessed as cucumber downy mildew disease control at 2 ppm foliar application 24 hr before inoculation onto the abaxial(treated) surface of leaf by preventive manner. The assay is classed as functional.
For assay [12], the system named is Pseudoperonospora cubensis. As to the kind of experiment: Fungicidal activity against Pseudoperonospora cubensis assessed as cucumber downy mildew disease control at 31.3 ppm foliar application 24 hr before inoculation onto the abaxial(treated) surface of leaf by preventive manner. The class given is functional.
Assay [13] concerns Pseudoperonospora cubensis. Nature of the assay: Fungicidal activity against Pseudoperonospora cubensis assessed as cucumber downy mildew disease control at 7.8 ppm foliar application 24 hr before inoculation onto the abaxial(treated) surface of leaf by preventive manner. The assay is classed as functional.
The subject of assay [14] is Pseudoperonospora cubensis. As to the kind of experiment: Fungicidal activity against Pseudoperonospora cubensis assessed as cucumber downy mildew disease control at 2 ppm foliar application 24 hr before inoculation onto the adaxial(treated) surface of leaf by preventive manner. The class given is functional.
The subject of assay [15] is Pseudoperonospora cubensis. As to the kind of experiment: Fungicidal activity against Pseudoperonospora cubensis assessed as cucumber downy mildew disease control at 500 ppm foliar application 24 hr before inoculation onto the adaxial(treated) surface of leaf by preventive manner. The class given is functional.
Assay [16] has as its system Pseudoperonospora cubensis. As to the kind of experiment: Fungicidal activity against Pseudoperonospora cubensis assessed as cucumber downy mildew disease control at 31.3 ppm foliar application 24 hr before inoculation onto the adaxial(treated) surface of leaf by preventive manner. The assay is classed as functional.
The subject of assay [17] is Pseudoperonospora cubensis. Nature of the assay: Fungicidal activity against Pseudoperonospora cubensis assessed as cucumber downy mildew disease control at 7.8 ppm foliar application 24 hr before inoculation onto the adaxial(treated) surface of leaf by preventive manner. The assay is classed as functional.
Assay [18] concerns Botrytis cinerea. As to the kind of experiment: Fungicidal activity against Botryotinia fuckeliana assessed as cucumber gray mold disease control at 7.8 ppm treated on upper surface of leaf 24 hr before inoculation at 22 +/- 2 degC measured after 3 days by preventive manner. The assay is classed as functional.
Assay [19] concerns Botrytis cinerea. As to the kind of experiment: Fungicidal activity against Botryotinia fuckeliana assessed as cucumber gray mold disease control at 500 ppm treated on upper surface of leaf 24 hr before inoculation at 22 +/- 2 degC measured after 3 days by preventive manner. The assay is classed as functional.
Assay [20] relates to Botrytis cinerea. Nature of the assay: Fungicidal activity against Botryotinia fuckeliana assessed as cucumber gray mold disease control at 125 ppm treated on upper surface of leaf 24 hr before inoculation at 22 +/- 2 degC measured after 3 days by preventive manner. The class given is functional.
Assay [21] concerns Podosphaera fuliginea. As to the kind of experiment: Fungicidal activity against Podosphaera fuliginea assessed as cucumber powdery mildew disease control at 500 ppm treated on upper surface of leaf 24 hr before inoculation at 23 +/- 2 degC measured after 10 days by preventive manner. The assay is classed as functional.
The test system of assay [22] is Phytophthora infestans. As to the kind of experiment: Fungicidal activity against Phytophthora infestans assessed as potato late blight disease suppression in field at 100 ppm following 4 applications at 1 week intervals. The class given is functional, organism-based.
Assay [23] relates to Pseudoperonospora cubensis. As to the kind of experiment: Fungicidal activity against Pseudoperonospora cubensis assessed as cucumber downy mildew disease control in field at 100 ppm measured after 9 days of last application. The assay is classed as functional.
The test system of assay [24] is Pseudoperonospora cubensis. As to the kind of experiment: Fungicidal activity against Pseudoperonospora cubensis assessed as cucumber downy mildew disease control in field at 25 ppm measured after 9 days of last application. The assay is classed as functional.
Assay [25] deals with Podosphaera fuliginea. As to the kind of experiment: Fungicidal activity against Podosphaera fuliginea assessed as cucumber powdery mildew disease control at 7.8 ppm treated on upper surface of leaf 24 hr before inoculation at 23 +/- 2 degC measured after 10 days by preventive manner. The class given is functional.
Assay [26] deals with Podosphaera fuliginea. As to the kind of experiment: Fungicidal activity against Podosphaera fuliginea assessed as cucumber powdery mildew disease control at 125 ppm treated on upper surface of leaf 24 hr before inoculation at 23 +/- 2 degC measured after 10 days by preventive manner. The class given is functional.

On to `N#Cc1c(Cl)c(Cl)c(Cl)c(C#N)c1Cl` [CHLOROTHALONIL], for which the Activity in assay [1] amounted to 55.3%.

Turning to `CNC(=O)C(OC)c1ccccc1CO/N=C(\C)c1ccc(C)cc1C` (racemic), the Activity in assay [2] came out at 90%; in assay [3], 90%; in assay [4], 50%; in [5] it was 90%.

Consider `CNC(=O)C(OC)c1ccccc1CO/N=C(\C)c1ccc(OC)cc1` (racemic), for which the Activity in assay [2] was 90%; in assay [6], 50%; in assay [7], 0%; in [8], 0%; in [9], 20%; in assay [10] it was 75%. The Activity in assay [11] stood at 0%; in [12] it was 0%; in [13], 0%; in [14] it was 0%; in [15] it was 100%; in assay [3] it was 100%. The Activity came out at 100% in [16], 0% in assay [17], 50% in assay [18] and 90% in assay [5].

Consider `CNC(=O)C(OC)c1ccccc1CO/N=C(/SC)c1ccc(Cl)cc1` (racemic), for which the Activity in [2] turned out to be 97%; in [6], 64%; in assay [7] it was 10%; in [8], 35%; in assay [9] it was 60%; in [10], 87%. Moreover, the Activity in [11] turned out to be 20%; in [12], 50%; in assay [13], 40%; in assay [14] it was 100%; in assay [15], 100%; in assay [3], 100%. Further, the Activity in [16] stood at 100%; in [17], 100%; in assay [19] it was 50%; in [5] it was 90%.

On to `CNC(=O)C(OC)c1ccccc1CO/N=C(/SC)c1ccc(OC)cc1` (racemic), for which the Activity in [2] is 90%; in assay [6] it was 64%; in assay [7], 25%; in assay [8], 25%; in [9], 65%; in assay [10] it was 95%. For the same compound, the Activity came to 25% in [11]; 40% in assay [12]; 25% in assay [13]; 90% in assay [14]; 96% in assay [15]; 100% in assay [3]. The Activity in assay [16] is on record as 100%; in assay [17], 99%; in assay [20], 50%; in [21], less than 90%.

As to `CNC(=O)C(OC)c1ccccc1CO/N=C(/SC)c1ccc(C(F)(F)F)cc1` (racemic), the Activity in assay [2] was 100%; in assay [6] it was 97%; in [23] it was 96.1%; in assay [24] it was 62.3%; in assay [7] it was 50%; in assay [8] it was 79%. The Activity was determined as 95% in [9]; 95% in assay [10]; 25% in [11]; 99% in [12]; 192% in assay [13]; 100% in assay [14]. Further, the Activity was found to be 100% in [15]; 100% in [3]; 100% in assay [16]; 100% in assay [17]; 50% in [20]; 90% in assay [25]. In addition, the inhibition result in assay [22] was “Active”.

In the case of `CCC/C(=N\OCc1ccccc1C(OC)C(=O)NC)c1ccc(Cl)cc1` (racemic), the Activity came to 90% in assay [12], 90% in [17], 50% in assay [20] and 90% in assay [25].

Turning to `CNC(=O)C(OC)c1ccccc1CO/N=C(\C)c1ccccc1` (racemic), the Activity is recorded as less than 90% in assay [2], less than 90% in [15], 50% in assay [4] and 90% in assay [5].

As to `CNC(=O)C(OC)c1ccccc1CO/N=C(\C)c1ccc([N+](=O)[O-])cc1` (racemic), the Activity in assay [2] is less than 90%; in [15], 90%; in [20] it was 50%; in [21], 90%.

For `CNC(=O)C(OC)c1ccccc1CO/N=C(/SC)c1ccc(OC(F)F)cc1` (racemic), the Activity is recorded as 100% in [2]; 100% in [6]; 81.6% in assay [23]; 71.4% in [24]; 30% in assay [7]; 40% in assay [8]. The Activity in assay [9] turned out to be 65%; in assay [10], 78%; in assay [11], 60%; in assay [12], 80%; in [13], 80%; in assay [14], 100%. Besides, the Activity stood at 100% in assay [15]; 100% in assay [3]; 100% in assay [16]; 100% in assay [17]; 50% in [4]; 90% in assay [5].

With `CNC(=O)C(OC)c1ccccc1COc1ccccc1` (racemic), the Activity in assay [2] is given as less than 90%; in assay [15], less than 90%; in assay [19], less than 50%; in assay [26], 90%.

As for `CNC(=O)C(OC)c1ccccc1CO/N=C(\C)c1ccc(OC(F)F)cc1` (racemic), the Activity in assay [2] worked out at 97%; in assay [6], 95%; in [23], 52.6%; in assay [7] it was 25%; in [8], 70%; in assay [9] it was 75%. Moreover, the Activity came to 75% in [10]; 30% in assay [11]; 90% in assay [12]; 65% in assay [13]; 97% in assay [14]; 97% in assay [15]. Further, the Activity is 97% in assay [3]; 97% in assay [16]; 97% in assay [17]; 50% in [18]; 90% in assay [25].
